The IC50 is the concentration at which inhibition is half-maximal.

The values below come from US9371319B2, “Pyrrolopyridineamino derivatives as MPS1 inhibitors” (priority 2011, dated 2016).

Each structure is given as a SMILES string.

The experiment addresses T1, full length MPS1 (Homo sapiens, UniProt P33981).
T1 sequence (P33981 1-857): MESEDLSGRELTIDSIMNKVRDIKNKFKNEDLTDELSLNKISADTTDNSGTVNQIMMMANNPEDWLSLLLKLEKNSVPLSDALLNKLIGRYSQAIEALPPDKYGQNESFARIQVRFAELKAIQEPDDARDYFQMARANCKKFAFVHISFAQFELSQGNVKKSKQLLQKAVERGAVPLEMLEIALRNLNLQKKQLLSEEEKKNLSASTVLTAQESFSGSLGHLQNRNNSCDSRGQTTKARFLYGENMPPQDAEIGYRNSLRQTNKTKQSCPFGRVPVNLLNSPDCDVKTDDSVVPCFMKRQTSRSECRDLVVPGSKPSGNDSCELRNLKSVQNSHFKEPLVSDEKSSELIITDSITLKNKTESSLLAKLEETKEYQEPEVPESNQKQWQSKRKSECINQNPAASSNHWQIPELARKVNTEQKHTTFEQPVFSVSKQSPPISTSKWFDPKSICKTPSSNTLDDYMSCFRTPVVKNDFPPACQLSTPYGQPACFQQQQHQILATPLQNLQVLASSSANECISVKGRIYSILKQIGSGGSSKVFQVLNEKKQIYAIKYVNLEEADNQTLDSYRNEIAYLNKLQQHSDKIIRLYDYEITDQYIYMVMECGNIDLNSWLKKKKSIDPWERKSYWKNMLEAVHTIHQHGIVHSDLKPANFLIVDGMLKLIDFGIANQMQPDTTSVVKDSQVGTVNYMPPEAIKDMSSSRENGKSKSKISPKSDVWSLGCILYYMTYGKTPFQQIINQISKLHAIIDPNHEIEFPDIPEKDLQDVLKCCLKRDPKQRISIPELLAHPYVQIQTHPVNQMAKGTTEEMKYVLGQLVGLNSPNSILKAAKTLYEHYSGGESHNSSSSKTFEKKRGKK
As to the kind of experiment: biochemical. The procedure:
Measurement of Inhibition of MPS1 Kinase
(5 μM), ATP (10 μM), either DMSO (1% v/v) or the test compound (in the range 0.25 nM-100 μM in 1% DMSO) and assay buffer (50 mM HEPES (pH 7.0), 0.02% NaN3, 0.01% BSA, 0.1 mM Orthovandate, […], 1 μM DTT, Roche protease inhibitor). The reaction was carried out for 60 min at room temperature and stopped by the addition of buffer (10 μl) containing 20 mM EDTA, 0.05% (v/v) Brij-35, in 0.1M HEPES-buffered saline (Free acid, Sigma, UK). The plate was read on a Caliper EZ reader II (Caliper Life Sciences).
The % inhibition of the compounds is calculated relative to the means of selected control wells. […] The % inhibitions at each concentration are then fitted to a 4 parameter logistic fit: y=(a+((b−a)/(1+((c/x^d)))) where a=asym min, b=asym max, c=IC50 and d=hill coefficient
`COC(=O)n1c(-c2cnn(C)c2)cc2cnc(Nc3ccc(-c4cnc(C)n4C)cc3Cl)cc21` [Example 86]: half-maximal inhibition (IC50) required 7 nM.
`CCOC(=O)n1c(-c2cnn(C)c2)cc2cnc(Nc3ccc(-c4cnc(C)n4C)cc3Cl)cc21` [Example 87] came in with an IC50 of 2 nM.
Regarding `CCCOC(=O)n1c(-c2cnn(C)c2)cc2cnc(Nc3ccc(-c4cnc(C)n4C)cc3Cl)cc21` [Example 88], the IC50 is 2 nM.
On to `CC(C)OC(=O)n1c(-c2cnn(C)c2)cc2cnc(Nc3cc(-c4cnn(C)c4)ccc3Cl)cc21` [Example 89], for which the IC50 turned out to be 287 nM.
For `Cc1cc(Cn2c(-c3cnn(C)c3)cc3cnc(Nc4ccc(C(=O)N(C)C)cc4Cl)cc32)no1` [Example 90] the value was 343 nM; for `Cn1cncc1-c1ccc(Nc2cc3c(cn2)cc(-c2cnco2)n3C(=O)OC(C)(C)C)c(Cl)c1` [Example 91], 6 nM.
Then `Cc1ccc(-n2c(-c3cnn(C)c3)cc3cnc(Nc4ccc(C(=O)N(C)C)cc4Cl)cc32)nc1` [Example 92], with 43 nM; and `CN(C)C(=O)c1ccc(Nc2cc3c(cn2)cc(-c2cnn(C)c2)n3-c2ncccn2)c(Cl)c1` [Example 93], with 94 nM.
Molecule `CN(C)C(=O)c1ccc(Nc2cc3c(cn2)cc(-c2cnn(C)c2)n3-c2ccccn2)c(Cl)c1` [Example 94] came in with an IC50 of 78 nM.
`COc1ccccc1Nc1cc2c(cn1)cc(-c1cnco1)n2C(=O)OC(C)(C)C` [Example 96] came in with a concentration for half-maximal inhibition (IC50) of 254 nM.
Then `COc1cc(C(=O)N2CC(OC)C2)ccc1Nc1cc2c(cn1)cc(-c1cnco1)n2C(=O)OC(C)(C)C` [Example 97], with 10 nM; and `COc1cc(-c2cnn(C)c2)ccc1Nc1cc2c(cn1)cc(-c1cnn(C)c1)n2C(=O)OC(C)C` [Example 102], with 7 nM; and `COc1cc(-c2cn(C)nc2C)ccc1Nc1cc2c(cn1)cc(-c1cnn(C)c1)n2C(=O)OC(C)C` [Example 103], with 2 nM.
Molecule `COCCn1c(-c2cnn(C)c2)cc2cnc(Nc3ccc(-c4cnc(C)n4C)cc3Cl)cc21` [Example 104] showed an IC50 of 83 nM.
The molecule `Cc1ncc(-c2ccc(Nc3cc4c(cn3)cc(-c3cnn(C)c3)n4CC3CC3)c(Cl)c2)n1C` [Example 105] showed an IC50 of 29 nM.
For `Cc1ncc(-c2ccc(Nc3cc4c(cn3)cc(-c3cnco3)n4C(=O)OC(C)C)c(Cl)c2)n1C` [Example 106] the value was 2 nM; for `Cc1ncc(-c2ccc(Nc3cc4c(cn3)cc(-c3cnco3)n4C(=O)OC(C)(C)C)c(Cl)c2)n1C` [Example 107], 2 nM.
In turn, `Cc1ncc(-c2ccc(Nc3cc4c(cn3)cc(-c3cnn(C)c3)n4C(=O)OC(C)C)cc2)n1C` [Example 108] had an IC50 of 2 nM.
For `CN(C)C(=O)c1ccc(Nc2cc3c(cn2)cc(-c2cnn(C)c2)n3S(=O)(=O)C2CCCC2)c(Cl)c1` [Example 110, 3-Chloro-4-(1-(cyclopentylsulfonyl)-2-(1-methyl-1H-pyrazol-4-yl)-1H-pyrrolo[3,2-c]pyridin-6-ylamino)-N,N-dimethylbenzamide] the value was 92 nM; for `COc1cc(C(=O)NC2CCN(C)CC2)ccc1Nc1cc2[nH]c(-c3cnn(C)c3)cc2cn1` [Example 111, 3-Methoxy-4-((2-(1-methyl-1H-pyrazol-4-yl)-1H-pyrrolo[3,2-c]pyridin-6-yl)amino)-N-(1-methylpiperidin-4-yl)benzamide], 42 nM; for `COc1ncccc1Nc1cc2[nH]c(-c3cnn(C)c3)cc2cn1` [Example 112, N-(2-Methoxypyridin-3-yl)-2-(1-methyl-1H-pyrazol-4-yl)-1H-pyrrolo[3,2-c]pyridin-6-amine], 21 nM.
`CN(C)C(=O)c1ccc(Nc2cc3[nH]c(-c4cnn(C)c4)cc3cn2)c(OC(F)(F)F)c1` [Example 113, N,N-Dimethyl-4-(2-(1-methyl-1H-pyrazol-4-yl)-1H-pyrrolo[3,2-c]pyridin-6-ylamino)-3-(trifluoromethoxy)benzamide] displayed a half-maximal inhibitory concentration (IC50) of 68 nM.
Molecule `COc1ccc(C(=O)N(C)C)cc1Nc1cc2[nH]c(-c3cnn(C)c3)cc2cn1` [Example 114, 4-Methoxy-N,N-dimethyl-3-(2-(1-methyl-1H-pyrazol-4-yl)-1H-pyrrolo[3,2-c]pyridin-6-ylamino)benzamide] registered an IC50 of 497 nM.
`COc1cc(C(=O)N2CCS(=O)(=O)CC2)ccc1Nc1cc2[nH]c(-c3cnn(C)c3)cc2cn1` [Example 115, (3-Methoxy-4-(2-(1-methyl-1H-pyrazol-4-yl)-1H-pyrrolo[3,2-c]pyridin-6-ylamino)phenyl)(thiomorpholino)methanone-S,S-dioxide] came in with an IC50 of 7 nM.
With `COc1cc(CN2CCS(=O)(=O)CC2)ccc1Nc1cc2[nH]c(-c3cnn(C)c3)cc2cn1` [Example 116, N-(2-Methoxy-4-(thiomorpholinomethyl)phenyl)-2-(1-methyl-1H-pyrazol-4-yl)-1H-pyrrolo[3,2-c]pyridin-6-amine-S,S-dioxide], the IC50 was found to be 10 nM.
Regarding `COc1cc(C(=O)N2CCOCC2)ccc1Nc1cc2[nH]c(-c3cnn(C)c3)cc2cn1` [Example 118, (3-Methoxy-4-(2-(1-methyl-1H-pyrazol-4-yl)-1H-pyrrolo[3,2-c]pyridin-6-ylamino)phenyl)(morpholino)methanone], the IC50 stood at 12 nM.
As to `COCCNC(=O)c1ccc(Nc2cc3[nH]c(-c4cnn(C)c4)cc3cn2)c(OC)c1` [Example 119, 3-Methoxy-N-(2-methoxyethyl)-4-(2-(1-methyl-1H-pyrazol-4-yl)-1H-pyrrolo[3,2-c]pyridin-6-ylamino)benzamide], inhibition was half-maximal at 19 nM (IC50).
Regarding `COc1cc(C(=O)N2CC(OC)C2)ccc1Nc1cc2[nH]c(-c3cnn(C)c3)cc2cn1` [Example 120, (3-Methoxy-4-(2-(1-methyl-1H-pyrazol-4-yl)-1H-pyrrolo[3,2-c]pyridin-6-ylamino)phenyl)(3-methoxyazetidin-1-yl)methanone], the IC50 worked out at 7 nM.
For `CN(C)C(=O)c1cc(Cl)c(Nc2cc3[nH]c(-c4cnn(C)c4)cc3cn2)c(Cl)c1` [Example 121, 3,5-Dichloro-N,N-dimethyl-4-(2-(1-methyl-1H-pyrazol-4-yl)-1H-pyrrolo[3,2-c]pyridin-6-ylamino)benzamide] the value was 91 nM.
`Cn1cc(-c2cc3cnc(Nc4ccc(-c5ccn(C)n5)cc4Cl)cc3[nH]2)cn1` [Example 124, N-(2-Chloro-4-(1-methyl-1H-pyrazol-3-yl)phenyl)-2-(1-methyl-1H-pyrazol-4-yl)-1H-pyrrolo[3,2-c]pyridin-6-amine] returned an IC50 of 52 nM.
Then `Cn1cc(-c2cc3cnc(Nc4ccc(-c5cncn5C)cc4Cl)cc3[nH]2)cn1` [Example 125, N-(2-Chloro-4-(1-methyl-1H-imidazol-5-yl)phenyl)-2-(1-methyl-1H-pyrazol-4-yl)-1H-pyrrolo[3,2-c]pyridin-6-amine], with 4 nM; and `COc1ccc(Nc2cc3c(cn2)cc(-c2cn[nH]c2)n3C)cc1OC` [Example 126, N-(3,4-dimethoxyphenyl)-1-methyl-2-(1H-pyrazol-4-yl)-1H-pyrrolo[3,2-c]pyridin-6-amine], with 26 nM.
Consider `Cn1cc(-c2cc3cnc(Nc4ccc(-n5cncn5)cc4Cl)cc3[nH]2)cn1` [Example 129, N-(2-Chloro-4-(1H-1,2,4-triazol-1-yl)phenyl)-2-(1-methyl-1H-pyrazol-4-yl)-1H-pyrrolo[3,2-c]pyridin-6-amine], for which the IC50 stood at 55 nM.
On to `Cn1cc(-c2cc3cnc(Nc4ccc(F)cc4Cl)cc3[nH]2)cn1` [Example 130, N-(2-Chloro-4-fluorophenyl)-2-(1-methyl-1H-pyrazol-4-yl)-1H-pyrrolo[3,2-c]pyridin-6-amine], for which it took 510 nM to reach half-maximal inhibition (IC50).
For `Cn1cc(-c2cc3cnc(Nc4ccc(S(C)(=O)=O)cc4Cl)cc3[nH]2)cn1` [Example 131, N-(2-Chloro-4-(methylsulfonyl)phenyl)-2-(1-methyl-1H-pyrazol-4-yl)-1H-pyrrolo[3,2-c]pyridin-6-amine] the value was 24 nM; for `Cn1cc(-c2cc3cnc(Nc4ccc(OC(F)F)cc4Cl)cc3[nH]2)cn1` [Example 132, N-(2-Chloro-4-(difluoromethoxy)phenyl)-2-(1-methyl-1H-pyrazol-4-yl)-1H-pyrrolo[3,2-c]pyridin-6-amine], 288 nM.
